From US20260028354A1, “TETRAHYDRONAPHTHALENE DERIVATIVES AS ESTROGEN RECEPTOR DEGRADERS” (REGENT OF THE UNIVERSITY OF MICHIGAN, priority 2022, published 2026) come the findings set out here.

The nature of this assay: Western blot analysis for "B" compounds. The assay is classed as cell-based. The conditions noted are these: read-out: Traditional Western Degradation Potency (DC50). In outline:
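Target protein levels given as relative mean band intensity over GAPDH from scanned immunoblots. Lysates of treated cells in RIPA buffer, equalized by BCA, separated on 10% gels and transferred to PVDF.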

Structures are written as SMILES.

The term DC50 denotes the midpoint of the concentration-degradation curve. On to `O=C1CCC(N2C(=O)c3cc4c(cc3C2=O)CN(CC2(F)CCN(C(=O)C3CCN(c5ccc([C@@H]6c7ccc(O)cc7CC[C@@H]6c6ccccc6)cc5)CC3)CC2)C4)C(=O)N1` (stereo partly drawn) [Compound B267, 2-(2,6-dioxopiperidin-3-yl)-6-((4-fluoro-1-(1-(4-((1R,2S)-6-hydroxy-2-phenyl-1,2,3,4-tetrahydronaphthalen-1-yl)phenyl)piperidine-4-carbonyl)piperidin-4-yl)methyl)-6,7-dihydropyrrolo[3,4-f]isoindole-1,3(2H,5H)-dione], for which the DC50 was over 100 nM.
In the case of `O=C1CCC(N2C(=O)c3cc4c(cc3C2=O)CN(CC2(F)CN(C(=O)C3CCN(c5ccc([C@@H]6c7ccc(O)cc7CC[C@@H]6c6ccccc6)cc5)CC3)C2)C4)C(=O)N1` (stereo partly drawn) [Compound B268, 2-(2,6-dioxopiperidin-3-yl)-6-((3-fluoro-1-(1-(4-((1R,2S)-6-hydroxy-2-phenyl-1,2,3,4-tetrahydronaphthalen-1-yl)phenyl)piperidine-4-carbonyl)azetidin-3-yl)methyl)-6,7-dihydropyrrolo[3,4-f]isoindole-1,3(2H,5H)-dione], the DC50 is over 100 nM.
With `O=C1CCC(N2C(=O)c3cc4c(cc3C2=O)CN(CC2CCN(C(=O)C3(F)CCN(c5ccc([C@@H]6c7ccc(O)cc7CC[C@@H]6c6ccccc6)cc5)CC3)CC2)C4)C(=O)N1` (stereo partly drawn) [Compound B269, 2-(2,6-dioxopiperidin-3-yl)-6-((1-(4-fluoro-1-(4-((1R,2S)-6-hydroxy-2-phenyl-1,2,3,4-tetrahydronaphthalen-1-yl)phenyl)piperidine-4-carbonyl)piperidin-4-yl)methyl)-6,7-dihydropyrrolo[3,4-f]isoindole-1,3(2H,5H)-dione], the DC50 was over 100 nM.
Take `O=C1CCC(N2C(=O)c3cc4c(cc3C2=O)CN(CC2(F)CCN(CC3CCN(c5ccc([C@@H]6c7ccc(O)cc7CC[C@@H]6c6ccccc6)cc5)CC3)CC2)C4)C(=O)N1` (stereo partly drawn) [Compound B270, 2-(2,6-dioxopiperidin-3-yl)-6-((4-fluoro-1-((1-(4-((1R,2S)-6-hydroxy-2-phenyl-1,2,3,4-tetrahydronaphthalen-1-yl)phenyl)piperidin-4-yl)methyl)piperidin-4-yl)methyl)-6,7-dihydropyrrolo[3,4-f]isoindole-1,3(2H,5H)-dione]: the DC50 was over 100 nM.
With `O=C1CCC(N2C(=O)c3cc4c(cc3C2=O)CN(CC2(F)CN(CC3CCN(c5ccc([C@@H]6c7ccc(O)cc7CC[C@@H]6c6ccccc6)cc5)CC3)C2)C4)C(=O)N1` (stereo partly drawn) [Compound B271, 2-(2,6-dioxopiperidin-3-yl)-6-((3-fluoro-1-((1-(4-((1R,2S)-6-hydroxy-2-phenyl-1,2,3,4-tetrahydronaphthalen-1-yl)phenyl)piperidin-4-yl)methyl)azetidin-3-yl)methyl)-6,7-dihydropyrrolo[3,4-f]isoindole-1,3(2H,5H)-dione] the figure was over 100 nM; with `O=C1CCC(N2C(=O)c3cc4c(cc3C2=O)CN(CC(=O)N2CCC3(CC2)CCN(c2ccc([C@@H]5c6ccc(O)cc6CC[C@@H]5c5ccc(F)cc5)cc2)CC3)C4)C(=O)N1` (stereo partly drawn) [Compound B272, 2-(2,6-dioxopiperidin-3-yl)-6-(2-(9-(4-((1R,2S)-2-(4-fluorophenyl)-6-hydroxy-1,2,3,4-tetrahydronaphthalen-1-yl)phenyl)-3,9-diazaspiro[5.5]undecan-3-yl)-2-oxoethyl)-6,7-dihydropyrrolo[3,4-f]isoindole-1,3(2H,5H)-dione], 10 to 100 nM.
As for `O=C1CCC(N2C(=O)c3cc4c(cc3C2=O)CN(CC2CCN(CC3CCN(c5ccc([C@@H]6c7ccc(O)cc7CC[C@@H]6c6ccccc6)cc5)CC3)CC2)C4)C(=O)N1` (stereo partly drawn) [Compound B273, 2-(2,6-dioxopiperidin-3-yl)-6-((1-((1-(4-((1R,2S)-6-hydroxy-2-phenyl-1,2,3,4-tetrahydronaphthalen-1-yl)phenyl)piperidin-4-yl)methyl)piperidin-4-yl)methyl)-6,7-dihydropyrrolo[3,4-f]isoindole-1,3(2H,5H)-dione], the DC50 is over 100 nM.
As for `O=C1CCC(N2C(=O)c3cc4c(cc3C2=O)CN(CC2CN(CC3CCN(c5ccc([C@@H]6c7ccc(O)cc7CC[C@@H]6c6ccccc6)cc5)CC3)C2)C4)C(=O)N1` (stereo partly drawn) [Compound B274, 2-(2,6-dioxopiperidin-3-yl)-6-((1-((1-(4-((1R,2S)-6-hydroxy-2-phenyl-1,2,3,4-tetrahydronaphthalen-1-yl)phenyl)piperidin-4-yl)methyl)azetidin-3-yl)methyl)-6,7-dihydropyrrolo[3,4-f]isoindole-1,3(2H,5H)-dione], the DC50 was over 100 nM.
For the compound `O=C1CCC(N2C(=O)c3cc4c(cc3C2=O)CN(CC(=O)N2CCC3(CC2)CC(Oc2ccc([C@@H]5c6ccc(O)cc6CC[C@@H]5c5ccccc5)cc2)C3)C4)C(=O)N1` (stereo partly drawn) [Compound B275, 2-(2,6-dioxopiperidin-3-yl)-6-(2-(2-(4-((1R,2S)-6-hydroxy-2-phenyl-1,2,3,4-tetrahydronaphthalen-1-yl)phenoxy)-7-azaspiro[3.5]nonan-7-yl)-2-oxoethyl)-6,7-dihydropyrrolo[3,4-f]isoindole-1,3(2H,5H)-dione], the DC50 is over 100 nM.
Regarding `O=C1CCC(N2C(=O)c3cc4c(cc3C2=O)CN(CC(=O)N2CC3(CC(Oc5ccc([C@@H]6c7ccc(O)cc7CC[C@@H]6c6ccccc6)cc5)C3)C2)C4)C(=O)N1` (stereo partly drawn) [Compound B276, 2-(2,6-dioxopiperidin-3-yl)-6-(2-(6-(4-((1R,2S)-6-hydroxy-2-phenyl-1,2,3,4-tetrahydronaphthalen-1-yl)phenoxy)-2-azaspiro[3.3]heptan-2-yl)-2-oxoethyl)-6,7-dihydropyrrolo[3,4-f]isoindole-1,3(2H,5H)-dione], the DC50 was over 100 nM.
Turning to `O=C1CCC(N2C(=O)c3cc4c(cc3C2=O)CN(C(=O)CN2CCC3(CC2)CC(Oc2ccc([C@@H]5c6ccc(O)cc6CC[C@@H]5c5ccccc5)cc2)C3)C4)C(=O)N1` (stereo partly drawn) [Compound B277, 2-(2,6-dioxopiperidin-3-yl)-6-(2-(2-(4-((1R,2S)-6-hydroxy-2-phenyl-1,2,3,4-tetrahydronaphthalen-1-yl)phenoxy)-7-azaspiro[3.5]nonan-7-yl)acetyl)-6,7-dihydropyrrolo[3,4-f]isoindole-1,3(2H,5H)-dione], the DC50 is over 100 nM.
With `O=C1CCC(N2C(=O)c3cc4c(cc3C2=O)CN(CC(=O)N2CC3(CCC(Oc5ccc([C@@H]6c7ccc(O)cc7CC[C@@H]6c6ccccc6)cc5)CC3)C2)C4)C(=O)N1` (stereo partly drawn) [Compound B278, 2-(2,6-dioxopiperidin-3-yl)-6-(2-(7-(4-((1R,2S)-6-hydroxy-2-phenyl-1,2,3,4-tetrahydronaphthalen-1-yl)phenoxy)-2-azaspiro[3.5]nonan-2-yl)-2-oxoethyl)-6,7-dihydropyrrolo[3,4-f]isoindole-1,3(2H,5H)-dione], the 50% degradation concentration (DC50) is over 100 nM.
With `O=C1CCC(N2C(=O)c3cc4c(cc3C2=O)CN(CC(=O)N2CCC3(CCC(Oc5ccc([C@@H]6c7ccc(O)cc7CC[C@@H]6c6ccccc6)cc5)CC3)CC2)C4)C(=O)N1` (stereo partly drawn) [Compound B279, 2-(2,6-dioxopiperidin-3-yl)-6-(2-(9-(4-((1R,2S)-6-hydroxy-2-phenyl-1,2,3,4-tetrahydronaphthalen-1-yl)phenoxy)-3-azaspiro[5.5]undecan-3-yl)-2-oxoethyl)-6,7-dihydropyrrolo[3,4-f]isoindole-1,3(2H,5H)-dione] the figure was over 100 nM.
As to `O=C1CCC(N2C(=O)c3cc4c(cc3C2=O)CN(C2CCN(C(=O)C3(F)CCN(c5ccc([C@@H]6c7ccc(O)cc7CC[C@@H]6c6ccccc6)cc5)CC3)CC2)C4)C(=O)N1` (stereo partly drawn) [Compound B280, 2-(2,6-dioxopiperidin-3-yl)-6-(1-(4-fluoro-1-(4-((1R,2S)-6-hydroxy-2-phenyl-1,2,3,4-tetrahydronaphthalen-1-yl)phenyl)piperidine-4-carbonyl)piperidin-4-yl)-6,7-dihydropyrrolo[3,4-f]isoindole-1,3(2H,5H)-dione], the DC50 was over 100 nM.
In the case of `O=C1CCC(N2C(=O)c3cc4c(cc3C2=O)CN(C(=O)[C@H]2CC[C@H](CN3CC(Oc5ccc([C@@H]6c7ccc(O)cc7CC[C@@H]6c6ccccc6)cc5)C3)CC2)C4)C(=O)N1` (stereo partly drawn) [Compound B281, 2-(2,6-dioxopiperidin-3-yl)-6-((1R,4r)-4-((3-(4-((1R,2S)-6-hydroxy-2-phenyl-1,2,3,4-tetrahydronaphthalen-1-yl)phenoxy)azetidin-1-yl)methyl)cyclohexane-1-carbonyl)-6,7-dihydropyrrolo[3,4-f]isoindole-1,3(2H,5H)-dione], the DC50 fell in the range of 10 to 100 nM.
For `O=C1CCC(N2C(=O)c3cc4c(cc3C2=O)CN(Cc2ccc(N3CCN(c5ccc([C@@H]6c7ccc(O)cc7CC[C@@H]6c6ccccc6)cc5)CC3)nc2)C4)C(=O)N1` (stereo partly drawn) [Compound B282, 2-(2,6-dioxopiperidin-3-yl)-6-((6-(4-(4-((1R,2S)-6-hydroxy-2-phenyl-1,2,3,4-tetrahydronaphthalen-1-yl)phenyl)piperazin-1-yl)pyridin-3-yl)methyl)-6,7-dihydropyrrolo[3,4-f]isoindole-1,3(2H,5H)-dione], the DC50 is over 100 nM.
On to `CC1(C(=O)N2CCC(N3Cc4cc5c(cc4C3)C(=O)N(C3CCC(=O)NC3=O)C5=O)CC2)CCN(c2ccc([C@@H]3c4ccc(O)cc4CC[C@@H]3c3ccccc3)cc2)CC1` (stereo partly drawn) [Compound B283, 2-(2,6-dioxopiperidin-3-yl)-6-(1-(1-(4-((1R,2S)-6-hydroxy-2-phenyl-1,2,3,4-tetrahydronaphthalen-1-yl)phenyl)-4-methylpiperidine-4-carbonyl)piperidin-4-yl)-6,7-dihydropyrrolo[3,4-f]isoindole-1,3(2H,5H)-dione], for which the DC50 was over 100 nM.
Consider `O=C1CCC(N2C(=O)c3cc4c(cc3C2=O)CN(CC(=O)N2CCC(Oc3ccc([C@@H]5c6ccc(O)cc6CC[C@@H]5c5ccccc5)cc3)CC2)C4)C(=O)N1` (stereo partly drawn) [Compound B284, 2-(2,6-dioxopiperidin-3-yl)-6-(2-(4-(4-((1R,2S)-6-hydroxy-2-phenyl-1,2,3,4-tetrahydronaphthalen-1-yl)phenoxy)piperidin-1-yl)-2-oxoethyl)-6,7-dihydropyrrolo[3,4-f]isoindole-1,3(2H,5H)-dione], for which the DC50 is over 100 nM.
